Laboratory results reported in US11028103B2, “Derivatized 3-styryl-cephalosporins” (priority 2013, dated 2021).

Tests used:
Format in all cases: biochemical
IMP-1 = target: T1, IMP-1 (Serratia marcescens, UniProt P52699); assay: 10 minute IC50 β-lactamase inhibition assay (Chromacef hydrolysis); conditions: 10 min preincubation, 300 μM Chromacef, pH 7.0, 30° C.
T1 construct: made in house
From the text: (§1) A chromogenic cephalosporin, Chromacef, is synthesized and isolated as described by Yu, et al. (Yu S; Vosbeek, A; Corbella, K; Severson, J; Schesser, J; and Sutton, L D. A chromogenic cephalosporin for fJ-lactamase inhibitor screening assays (2012) Analytical Biochemistry, 438, 96-98) and used to monitor β-lactamase activity. β-Lactamase enzymes are isolated from bacteria by methods known to those knowledgeable in the art. A typical assay monitors the hydrolysis of Chromacef via the formation of a species which absorbs maximally at 442 nm (molar extinction coefficient=14,500). Absorption is monitored as a function of time in buffer (either 50 mM, pH 7.0 sodium phosphate or 100 mM, pH 7.0 Trisma buffer supplemented with 100 μM ZnCl2), 100-300 μM Chromacef and 1-3 volume percent DMSO cosolvent at 30° C. using a spectrophotometer having thermal-regulated cuvette holder. The assay is initiated by addition and mixing of an appropriate amount of β-lactamase.
(§2) The 100% activity control is performed as described above using 300 μM Chromacef, 3 volume percent DMSO cosolvent in buffer (either 50 mM, pH 7.0 sodium phosphate or 100 mM, pH 7.0 Trisma buffer supplemented with 100 μM ZnCl2) at 30° C. The reaction is initiated by addition and mixing of an appropriate amount of β-lactamase and the formation of product is followed as a function of time by monitoring the increase in absorbance at 442 nm as a function of time. The reaction is followed through <10% completeness and the initial rate determined via linear least squares analysis where the slope is the initial rate.
(§3) Ten-minute inhibition assays are performed as described above using 50-500 μM inhibitor cephalosporin, 0.5-5 volume percent DMSO cosolvent, and the same amount of enzyme as used in the control assay in buffer (either 50 mM, pH 7.0 sodium phosphate or 100 mM, pH 7.0 Trisma buffer supplemented with 100 μM ZnCl2) at 30° C. The reaction is initiated by after 10 minutes points by the addition and mixing of an appropriate amount of Chromacef to give a 300 μM concentration and the formation of product is followed as a function of time by monitoring the increase in absorbance at 442 nm as a function of time. The reaction is followed through <10% completeness and the initial rate determined via linear least squares analysis where the slope is the initial rate.

NDM-1 [1] = target: T2, NDM-1 (Klebsiella pneumoniae, UniProt C7C422); assay: as above; conditions: 10 min preincubation, 300 μM Chromacef, pH 7.0, 30° C.
T2 construct: made in house
From the text: as §1, §2, §3

VIM-2 = target: T3, VIM-2 (Escherichia coli, UniProt Q5U7L7); assay: as above; conditions: 10 min preincubation, 300 μM Chromacef, pH 7.0, 30° C.
T3 construct: made in house
From the text: as §1, §2, §3

KPC-3 = target: T4, KPC-3 (Klebsiella pneumoniae, UniProt Q9F663, H272Y); assay: as above; conditions: 10 min preincubation, 300 μM Chromacef, pH 7.0, 30° C.
T4 construct: made in house
From the text: as §1, §2, §3

NDM-1 [2] = target: T2, NDM-1; assay: Assay for determining irreversible β-lactamase inhibition (500-fold dilution); conditions: FIG. 2
Protocol: as §2
Inhibition of β-lactamase was performed at a concentration of β-lactamase 500 times greater than used in the control assay, and 50-500 μM cephalosporin inhibitor, buffer (either 50 mM, pH 7.0 sodium phosphate or 100 mM, pH 7.0 Trisma buffer supplemented with 100 μM ZnCl2), 0.5-5 volume percent DMSO cosolvent for various times. Activity assays were performed the same as the control reaction except 2.00 μL of this inhibition solution were substituted for the uninhibited enzyme solution resulting in a 500-fold dilution of inhibitor to eliminate any competitive binding of inhibitor to enzyme.

T2 sequence (C7C422 29-270, looked up, species assumed): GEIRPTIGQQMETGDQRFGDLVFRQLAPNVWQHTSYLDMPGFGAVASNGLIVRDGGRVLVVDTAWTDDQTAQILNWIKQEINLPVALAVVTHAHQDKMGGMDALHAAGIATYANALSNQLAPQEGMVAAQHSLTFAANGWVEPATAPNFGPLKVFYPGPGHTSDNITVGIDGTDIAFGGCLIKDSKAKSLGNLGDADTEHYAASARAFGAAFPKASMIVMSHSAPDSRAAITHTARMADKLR
T1 sequence (P52699 19-246, looked up, species assumed): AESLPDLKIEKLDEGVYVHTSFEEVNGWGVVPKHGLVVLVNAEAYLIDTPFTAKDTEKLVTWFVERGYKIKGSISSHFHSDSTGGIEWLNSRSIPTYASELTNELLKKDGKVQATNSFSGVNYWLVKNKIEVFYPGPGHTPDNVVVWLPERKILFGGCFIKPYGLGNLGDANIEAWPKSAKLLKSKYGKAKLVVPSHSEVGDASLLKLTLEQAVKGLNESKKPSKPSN
T4 sequence (Q9F663 25-293 H272Y): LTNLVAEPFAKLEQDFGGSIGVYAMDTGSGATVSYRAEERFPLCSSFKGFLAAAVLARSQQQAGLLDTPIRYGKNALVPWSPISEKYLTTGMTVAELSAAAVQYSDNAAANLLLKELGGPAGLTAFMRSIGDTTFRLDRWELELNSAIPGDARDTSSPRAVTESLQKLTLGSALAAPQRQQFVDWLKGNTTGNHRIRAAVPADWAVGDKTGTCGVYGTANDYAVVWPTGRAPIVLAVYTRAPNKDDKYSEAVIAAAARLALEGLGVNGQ

IC50 (VIM-2)	Structure (SMILES)	IC50 (IMP-1)	IC50 (NDM-1 [1])	IC50 (KPC-3)	irreversibility of the inhibition (NDM-1 [2]; activity after 500-fold dilution of inhibitor)	time-dependency of the inhibition (NDM-1 [2]; various incubation times)
10.7 µM	O=C(Cc1ccccc1)NC1C(=O)N2C(C(=O)O)=C(C=Cc3ccc(CCl)cc3)CS[C@H]12 (some centres unmarked) [II-Cl/benzyl, 3-(4-(chloromethyl)styryl)-7-(2-phenylacetamido)-ceph-3-em-4-carboxylic acid]	61.8 µM	6.4 µM			
	O=C(Cc1ccccc1)NC1C(=O)N2C(C(=O)O)=C(C=Cc3ccc(CCl)cc3[N+](=O)[O-])CS[C@H]12 (some centres unmarked) [III-Cl/benzyl, 3-(2-nitro-4-(chloromethyl)styryl)-7-(2-phenylacetamido)-ceph-3-em-4-carboxylic acid]	0.584 µM	0.584 µM	0.973 µM	irreversibility of the inhibition	time-dependency of the inhibition
